Results on one compound are retold here after patent publication US20190117586A1, “METHODS OF PREVENTING OR TREATING PARKINSON'S DISEASE BY THE FARNESYLATION OF PARIS” (The Johns Hopkins University, priority 2016, published 2019).

The test system of data set [1] is PGC-1α target genes. Kind of data set: mRNA of PGC-1α target genes in SH-SY5Y cells by real-time qRT-PCR. The format is cell-based. Here is the method:
The 9 compounds that activate the PGC-1α promoter in the presence of PARIS were evaluated to determine which compounds induce PGC-1α levels in SH-SY5Y cells (FIGS. 2A and 2B). […] The mRNA level of PGC-1α target genes including copper/zinc superoxide dismutase (SOD1), manganese SOD (SOD2), glutathione peroxidase (GPx1), catalase (CAT), nuclear respiratory factor-1 (NRF-1), mitochondrial transcription factor A (TFAM), mitochondrial uncoupling proteins (UCP2 and UCP3), and the oxidative phosphorylation regulators, ATP5b, cytochrome C (CytC) and cytochrome C oxidase (COX II and IV) were determined by real-time quantitative RT-PCR (qRT-PCR) (FIG. 2C).
For orientation: Quantitative PCR measures a nucleic acid by following its amplification.

The nature of data set [2]: Farnesol concentration in brain and plasma of farnesol diet fed mice by mass spectrometry. The format is in vivo. The conditions noted are these: 0.5% w/w trans-farnesol in AIN-76A diet; for concentration at 7 days: mouse, oral, 0.5 % w/w in diet.
The subject of data set [3] is PGC-1α. Kind of data set: PGC-1α level in brain regions of farnesol-fed mice. In kind it is in vivo. The conditions noted are these: farnesol-fed mice versus normal mouse chow. The method, then: (§1) Farnesol is a natural organic compound in both plants and animals. Phosphate derivatives of farnesol are the building blocks of cholesterol in mammalian cells. […] The level of PGC-1α was measured from different brain regions in farnesol-fed mice. PGC-1α levels increase 2.7-fold in the olfactory bulb (OB), 1.6-fold in hippocampus (HIP), and 1.7-fold in substantia nigra (SN) as compared to that of mice on normal mouse chow (FIGS. 2H and 2I). […] In addition, mRNA levels of PGC-1α and a variety of PGC-1α's target genes in the STR, HIP, and SN of farnesol-fed mice were measured.

In data set [4] the test system is PGC-1α and PGC-1α's target genes. The data set is described as follows: mRNA of PGC-1α and target genes in STR, HIP and SN of farnesol-fed mice. In kind it is in vivo. Here is the method:
as §1

The test system of data set [5] is PARIS. The data set is described as follows: PARIS farnesylation in SH-SY5Y cells transfected with Flag-tagged PARIS (immunoprecipitation). In kind it is cell-based. The method, then:
Geraniol or geranylgeraniol have no effect on PGC-1α levels (FIG. 3H).
To confirm that farnesylation of PARIS requires FTase, siRNA-FTase α knockdown or FTI-277 inhibition of FTase in the setting of PARIS overexpression was performed (FIG. 4C). […] To ascertain whether the farnesylation of PARIS affects the DNA binding activity of PARIS on the IRS motif of the PGC-1α promoter, a chromatin immunoprecipitation assay (ChIP) was performed from SH-SY5Y transfected with GFP-tagged PARIS WT or GFP-tagged PARIS C631S. […] To examine the possibility that the farnesylation of PARIS alters its subcellular distribution, subcellular fractionation was used to monitor the levels of PARIS in cytosolic, membrane, soluble nuclear, and chromatin-bound nuclear fractions by immunoblot analysis (FIG. 4F).

Data set [6] deals with PGC-1α promoter. Kind of data set: PGC-1α promoter activity with PARIS WT or PARIS C631S mutant. The format is cell-based. The conditions noted are these: PARIS WT; not observed with PARIS C631S mutant.
Data set [7] deals with α-syn PFF-injected mice. The data set is described as follows: α-syn PFF-injected mice (WT and C638S KI). Conditions: farnesol diet from 2 weeks post-injection; WT versus C638S KI. In kind it is in vivo. The source says: Specifically, FIG. 16A illustrates generating Zfp746^C638S/C638S knockin mice (C638S KI) by CRISPR/Cas9. […] WB, western blot analysis. (FIG. 16B). […] (FIG. 16C). […] Stereological TH, Nissl-positive neuronal counting was indicated at the bottom, n=4 mice per group. (FIG. 16 D). […] WT, n=8, 9, 10, and 9 mice for each group; C638S KI, n=8, 10, 9, and 9 mice for each group. (FIG. 16 D). […] WT, n=8, 9, 10, and 9 mice for each group; C638S KI, n=9, 10, 9, and 9 mice for each group. (FIG. 16F). […] Data=mean±SEM. (FIG. 16G).
Statistical significance was determined by two-way ANOVA test with Tukey post-hoc analysis. Differences were considered significant when p<0.05. *p<0.05, **p<0.01, and ***p<0.001.

Data set [8] concerns the target T1, PPARγ (Homo sapiens, UniProt P37231).
T1 sequence (P37231 1-505): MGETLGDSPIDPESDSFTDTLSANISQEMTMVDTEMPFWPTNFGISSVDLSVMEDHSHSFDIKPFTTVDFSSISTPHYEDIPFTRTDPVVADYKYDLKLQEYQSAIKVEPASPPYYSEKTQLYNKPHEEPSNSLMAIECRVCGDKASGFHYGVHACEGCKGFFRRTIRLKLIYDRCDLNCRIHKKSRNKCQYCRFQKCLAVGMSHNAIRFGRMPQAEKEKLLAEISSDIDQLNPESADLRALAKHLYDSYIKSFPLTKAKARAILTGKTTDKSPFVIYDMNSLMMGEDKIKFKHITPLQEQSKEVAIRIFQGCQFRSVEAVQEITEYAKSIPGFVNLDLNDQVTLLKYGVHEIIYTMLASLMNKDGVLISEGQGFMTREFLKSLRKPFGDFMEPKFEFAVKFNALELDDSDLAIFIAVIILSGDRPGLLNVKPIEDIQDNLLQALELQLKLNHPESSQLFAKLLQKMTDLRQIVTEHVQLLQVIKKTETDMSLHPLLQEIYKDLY
Conditions: cited from earlier work.

The conditions of data set [9]: dietary farnesol in rats; cited from earlier work.
For data set [10] the following is noted: dietary farnesol in rodents; cited from earlier work.
Where [11] appears, read: farnesol fed versus normal chow fed mice.
[12] abbreviates: SH-SY5Y, Flag-tagged PARIS, farnesol treatment 48 hours.

Regarding `CC(C)=CCC/C(C)=C/CC/C(C)=C/CO` [farnesol, (2E,6E)-3,7,11-trimethyldodeca-2,6,10-trien-1-ol], in data set [1], the “PGC-1α, SOD1, and ATP5B mRNA levels” value was “increased”; the “mRNA level of NRF-1” value is reported as “robustly increased”. Moreover, the “increase of farnesol level in the brain versus control diet fed mice” value in [2] (7 days) was 37%. The compound further came in with a concentration at 7 days in data set [2] (brain) of 155 ng/g. The compound further yielded a concentration at 7 days in [2] (plasma, non-detectable on control diet) of 113 ng/mL. Besides, in data set [3], the “PGC-1α level increase, hippocampus (HIP)” value stood at 1.6 fold; the “PGC-1α level increase, olfactory bulb (OB)” value was determined as 2.7 fold; the “PGC-1α level increase, substantia nigra (SN)” value was found to be 1.7 fold; the “PGC-1α levels in cerebellum (CBM), brain stem (BS), striatum (STR), frontal cortex (CTX)” value is listed as “No significant change”. In addition, in data set [4] (farnesol fed mice, SN, HIP, STR), the “mRNA levels of SOD2, TFAM, UCP2, and CYTC” value is “exclusively increased in SN, but not in the HIP and STR”. For the same compound, in [4] (setting [11]), the “mRNA level of PGC-1α in HIP, SN and STR” value is “significantly upregulated in the HIP and SN, but not in the STR”; the “mRNA levels of NRF-1, COX II, and COX IV” value is “upregulated in both HIP and SN”. The “restoration of PGC-1α levels with PARIS C631S mutant” value in [5] (PARIS C631S mutant) is recorded as “no effect”. Besides, in [5] (PARIS C631S mutant, in the presence of farnesol), the “farnesylation of FLAG-PARIS C631S mutant” value is “no farnesylation”. Besides, the “PGC-1α level with PARIS WT” value in [5] (PARIS WT) is on record as “upregulation of PGC-1α”. The “farnesylation of FLAG-PARIS WT” value in data set [5] (PARIS WT, farnesol treatment) was “farnesylation is increased”. For the same compound, in data set [5] (setting [12]), the PARIS farnesylation entry is “increases PARIS farnesylation in a dose-dependent manner” and the “PGC-1α accompanying PARIS farnesylation” value is on record as “increase in PGC-1α”. The PGC-1α promoter activity result in data set [6] is “increase of PGC-1α promoter activity”. For the same compound, the “neuroprotective effect in α-syn PFF-injected mice” value in data set [7] is listed as “requires PARIS farnesylation in vivo”. The “activation of PPARγ in vitro” value in data set [8] is “capable of activating”. Moreover, in [9], the “level of serum triglycerides, cholesterol” value is on record as “lowers”. In addition, the cardioprotective effects entry in data set [10] is listed as “exhibits cardioprotective effects”.
